Measured values: patent US6737383B1, “Herbicidal oxadiazolidines” (priority 1999, dated 2004)

Legend:
corn = assay: Test B pre/postemergence corn; format: in vivo, Zea mays; settings: for Corn plant response rating: scale of 0 to 10 where 0 is no effect and 10 is complete control
Outline: (§1)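 Herbicidal effect was estimated by eye on a ten-point control scale after plants spent twelve to sixteen days in a greenhouse following soil or foliar treatment. Foliar sprays targeted plants at one to four leaves; all doses were formulated in a non-phytotoxic solvent with surfactant.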

purple nutsedge = assay: Test B pre/postemergence purple nutsedge; format: in vivo, Cyperus rotundus; settings: for Nutsedge plant response rating: scale of 0 to 10 where 0 is no effect and 10 is complete control
Outline: as §1

cocklebur = assay: Test B pre/postemergence cocklebur; format: in vivo, Xanthium strumarium; settings: for Cocklebur plant response rating: scale of 0 to 10 where 0 is no effect and 10 is complete control
Outline: as §1

rape = assay: Test B pre/postemergence rape; format: in vivo, Brassica napus; settings: for Rape plant response rating: scale of 0 to 10 where 0 is no effect and 10 is complete control
Outline: as §1

rice = assay: Test B flood test rice; format: in vivo, Oryza sativa
Outline: (§2)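 Flood test on plants grown to the 2-leaf stage; treated plants kept in greenhouse twelve to sixteen days, then visually rated against controls on a 0 (no effect) to 10 (complete control) scale.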

pigweed = assay: Test B pre/postemergence pigweed; format: in vivo, Amaranthus retroflexus; settings: for Redroot pigweed plant response rating: scale of 0 to 10 where 0 is no effect and 10 is complete control
Outline: as §1

blackgrass = assay: Test B pre/postemergence blackgrass; format: in vivo, Alopecurus myosuroides; settings: for Blackgrass plant response rating: scale of 0 to 10 where 0 is no effect and 10 is complete control
Outline: as §1

sugar beet = assay: Test B pre/postemergence sugar beet; format: in vivo, Beta vulgaris; settings: for Sugarbeets plant response rating: scale of 0 to 10 where 0 is no effect and 10 is complete control
Outline: as §1

giant foxtail = assay: Test B pre/postemergence giant foxtail; format: in vivo, Setaria faberii; settings: for Giant foxtail plant response rating: scale of 0 to 10 where 0 is no effect and 10 is complete control
Outline: as §1

surinam grass = assay: Test B pre/postemergence surinam grass; format: in vivo, Brachiaria decumbens; settings: for B. signalgrass plant response rating: scale of 0 to 10 where 0 is no effect and 10 is complete control
Outline: as §1

smallflower flatsedge = assay: Test B flood test smallflower flatsedge; format: in vivo, Cyperus difformis
Outline: as §2

velvetleaf = assay: Test B pre/postemergence velvetleaf; format: in vivo, Abutilon theophrasti; settings: for Velvetleaf plant response rating: scale of 0 to 10 where 0 is no effect and 10 is complete control
Outline: as §1

duck salad = assay: Test B flood test duck salad; format: in vivo, Heteranthera limosa
Outline: as §2

morningglory = assay: Test B pre/postemergence morningglory; format: in vivo, Ipomoea hederacea; settings: for Morningglory plant response rating: scale of 0 to 10 where 0 is no effect and 10 is complete control
Outline: as §1

wheat = assay: Test B pre/postemergence wheat; format: in vivo, Triticum aestivum; settings: for Wheat plant response rating: scale of 0 to 10 where 0 is no effect and 10 is complete control
Outline: as §1

crabgrass = assay: Test B pre/postemergence crabgrass; format: in vivo, Digitaria sanguinalis; settings: for Crabgrass plant response rating: scale of 0 to 10 where 0 is no effect and 10 is complete control
Outline: as §1

[1] = Postemergence, Rate 125 g/ha, scale 0 to 10, 0 is no effect, 10 is complete control
[2] = Postemergence, Rate 250 g/ha, scale 0 to 10, 0 is no effect, 10 is complete control
[3] = Preemergence, Rate 62 g/ha, scale 0 to 10 (0 no effect, 10 complete control)
[4] = Rate 500 g/ha, Postemergence, scale 0 to 10, 0 no effect, 10 complete control
[5] = Rate 62 g/ha, flood test species, Pre-emergence, visual evaluation after twelve to sixteen days
[6] = Rate 125 g/ha, under heading Pre-emergence, flood test species, visual evaluation after twelve to sixteen days
[7] = Rate 250 g/ha, Pre-emergence, flood-test species, scale 0 to 10, 0 is no effect, 10 is complete control
[8] = Rate 500 g/ha, Pre-emergence, flood test species, scale 0 to 10 (0 no effect, 10 complete control)

In the case of `CC(C)N(C(=O)n1oc(=O)n(CC2CCOC2)c1=O)c1ccc(F)cc1` (centres unmarked) [Compound 375], the “Plant response rating, Corn” value (corn; [1]) is reported as 0, the “Plant response rating, Corn” value (corn; [2]) is reported as 0 and the “Plant response rating, Corn” value (corn; [3]) is reported as 0. The “Corn plant response rating (0 to 10 scale)” value (corn; Preemergence, Rate 125 g/ha) was 2, the “Corn plant response rating” value (corn; Preemergence, Rate 250 g/ha) was 2 and the “Corn plant response rating” value (corn; Preemergence, Rate 500 g/ha) was 7. For the same compound, the “Corn plant response rating” value (corn; Rate 62 g/ha, Postemergence) was 0, the “Plant response rating, Corn” value (corn; [4]) was 2 and the “Plant response rating, Nutsedge” value (purple nutsedge; [1]) was 0. The “Plant response rating, Nutsedge” value (purple nutsedge; [2]) was 0, the “Plant response rating, Nutsedge” value (purple nutsedge; [3]) was 0 and the “Nutsedge plant response rating (0 to 10 scale)” value (purple nutsedge; Preemergence, Rate 125 g/ha) was 0. The “Nutsedge plant response rating” value (purple nutsedge; Preemergence, Rate 250 g/ha) was 0, the “Nutsedge plant response rating” value (purple nutsedge; Preemergence, Rate 500 g/ha) was 0 and the “Nutsedge plant response rating” value (purple nutsedge; Rate 62 g/ha, Postemergence) was 0. For the same compound, the “Plant response rating, Nutsedge” value (purple nutsedge; [4]) was 6, the “Plant response rating, Cocklebur” value (cocklebur; [1]) was 0 and the “Plant response rating, Cocklebur” value (cocklebur; [2]) was 0. For the same compound, the “Plant response rating, Cocklebur” value (cocklebur; [3]) was 0, the “Cocklebur plant response rating (0 to 10 scale)” value (cocklebur; Preemergence, Rate 125 g/ha) was 0 and the “Cocklebur plant response rating” value (cocklebur; Preemergence, Rate 250 g/ha) was 0. The “Cocklebur plant response rating” value (cocklebur; Preemergence, Rate 500 g/ha) was 0, the “Cocklebur plant response rating” value (cocklebur; Rate 62 g/ha, Postemergence) was 0 and the “Plant response rating, Cocklebur” value (cocklebur; [4]) was 0. The “Plant response rating, Rape” value (rape; [1]) was 0, the “Plant response rating, Rape” value (rape; [2]) was 0 and the “Plant response rating, Rape” value (rape; [3]) was 0. For the same compound, the “Rape plant response rating (0 to 10 scale)” value (rape; Preemergence, Rate 125 g/ha) was 2, the “Rape plant response rating” value (rape; Preemergence, Rate 250 g/ha) was 6 and the “Rape plant response rating” value (rape; Preemergence, Rate 500 g/ha) was 8. For the same compound, the “Rape plant response rating” value (rape; Rate 62 g/ha, Postemergence) was 0, the “Plant response rating, Rape” value (rape; [4]) was 2 and the “Plant response rating, Rice (0 to 10 scale, 0 is no effect, 10 is complete control)” value (rice; [5]) was 0. The “Rice plant response rating (0 to 10 scale, 0 is no effect, 10 is complete control)” value (rice; [6]) was 0, the “Rice plant response rating” value (rice; [7]) was 0 and the “Rice plant response rating” value (rice; [8]) was 0. The “Plant response rating, Redroot pigweed” value (pigweed; [1]) was 0, the “Plant response rating, Redroot pigweed” value (pigweed; [2]) was 0 and the “Plant response rating, Redroot pigweed” value (pigweed; [3]) was 10. For the same compound, the “Redroot pigweed plant response rating (0 to 10 scale)” value (pigweed; Preemergence, Rate 125 g/ha) was 10, the “Redroot pigweed plant response rating” value (pigweed; Preemergence, Rate 250 g/ha) was 10 and the “Redroot pigweed plant response rating” value (pigweed; Preemergence, Rate 500 g/ha) was 10. The “Redroot pigweed plant response rating” value (pigweed; Rate 62 g/ha, Postemergence) was 0, the “Plant response rating, Redroot pigweed” value (pigweed; [4]) was 3 and the “Plant response rating, Blackgrass” value (blackgrass; [1]) was 5. For the same compound, the “Plant response rating, Blackgrass” value (blackgrass; [2]) was 5, the “Plant response rating, Blackgrass” value (blackgrass; [3]) was 3 and the “Blackgrass plant response rating (0 to 10 scale)” value (blackgrass; Preemergence, Rate 125 g/ha) was 5. The “Blackgrass plant response rating” value (blackgrass; Preemergence, Rate 250 g/ha) was 9, the “Blackgrass plant response rating” value (blackgrass; Preemergence, Rate 500 g/ha) was 10 and the “Blackgrass plant response rating” value (blackgrass; Rate 62 g/ha, Postemergence) was 2. The “Plant response rating, Blackgrass” value (blackgrass; [4]) was 8, the “Plant response rating, Sugarbeets” value (sugar beet; [1]) was 0 and the “Plant response rating, Sugarbeets” value (sugar beet; [2]) was 0. The “Plant response rating, Sugarbeets” value (sugar beet; [3]) was 0, the “Sugarbeets plant response rating (0 to 10 scale)” value (sugar beet; Preemergence, Rate 125 g/ha) was 2 and the “Sugarbeets plant response rating” value (sugar beet; Preemergence, Rate 250 g/ha) was 4. For the same compound, the “Sugarbeets plant response rating” value (sugar beet; Preemergence, Rate 500 g/ha) was 7, the “Sugarbeets plant response rating” value (sugar beet; Rate 62 g/ha, Postemergence) was 0 and the “Plant response rating, Sugarbeets” value (sugar beet; [4]) was 3. The “Plant response rating, Giant foxtail” value (giant foxtail; [1]) was 6, the “Plant response rating, Giant foxtail” value (giant foxtail; [2]) was 8 and the “Plant response rating, Giant foxtail” value (giant foxtail; [3]) was 10. The “Giant foxtail plant response rating (0 to 10 scale)” value (giant foxtail; Preemergence, Rate 125 g/ha) was 10, the “Giant foxtail plant response rating” value (giant foxtail; Preemergence, Rate 250 g/ha) was 10 and the “Giant foxtail plant response rating” value (giant foxtail; Preemergence, Rate 500 g/ha) was 10. The “Giant foxtail plant response rating” value (giant foxtail; Rate 62 g/ha, Postemergence) was 0, the “Plant response rating, Giant foxtail” value (giant foxtail; [4]) was 9 and the “Plant response rating, B. signalgrass” value (surinam grass; [1]) was 0. For the same compound, the “Plant response rating, B. signalgrass” value (surinam grass; [2]) was 2, the “Plant response rating, B. signalgrass” value (surinam grass; [3]) was 0 and the “B. signalgrass plant response rating (0 to 10 scale, 0 is no effect, 10 is complete control)” value (surinam grass; Preemergence, Rate 125 g/ha) was 0. For the same compound, the “B. signalgrass plant response rating” value (surinam grass; Preemergence, Rate 250 g/ha) was 4, the “B. signalgrass plant response rating” value (surinam grass; Preemergence, Rate 500 g/ha) was 8 and the “B. signalgrass plant response rating” value (surinam grass; Rate 62 g/ha, Postemergence) was 0. For the same compound, the “Plant response rating, B. signalgrass” value (surinam grass; [4]) was 8, the “Plant response rating, S. Flatsedge (0 to 10 scale, 0 is no effect, 10 is complete control)” value (smallflower flatsedge; [5]) was 0 and the “S. Flatsedge plant response rating (0 to 10 scale, 0 is no effect, 10 is complete control)” value (smallflower flatsedge; [6]) was 0. The “S. Flatsedge plant response rating” value (smallflower flatsedge; [7]) was 0, the “S. Flatsedge plant response rating” value (smallflower flatsedge; [8]) was 0 and the “Plant response rating, Velvetleaf” value (velvetleaf; [1]) was 0. The “Plant response rating, Velvetleaf” value (velvetleaf; [2]) was 2, the “Plant response rating, Velvetleaf” value (velvetleaf; [3]) was 0 and the “Velvetleaf plant response rating (0 to 10 scale)” value (velvetleaf; Preemergence, Rate 125 g/ha) was 3. For the same compound, the “Velvetleaf plant response rating” value (velvetleaf; Preemergence, Rate 250 g/ha) was 4, the “Velvetleaf plant response rating” value (velvetleaf; Preemergence, Rate 500 g/ha) was 7 and the “Velvetleaf plant response rating” value (velvetleaf; Rate 62 g/ha, Postemergence) was 0. The “Plant response rating, Velvetleaf” value (velvetleaf; [4]) was 4, the “Plant response rating, Ducksalad (0 to 10 scale, 0 is no effect, 10 is complete control)” value (duck salad; [5]) was 0 and the “Ducksalad plant response rating (0 to 10 scale, 0 is no effect, 10 is complete control)” value (duck salad; [6]) was 0. The “Ducksalad plant response rating” value (duck salad; [7]) was 0, the “Ducksalad plant response rating” value (duck salad; [8]) was 0 and the “Plant response rating, Morningglory” value (morningglory; [1]) was 1. For the same compound, the “Plant response rating, Morningglory” value (morningglory; [2]) was 5, the “Plant response rating, Morningglory” value (morningglory; [3]) was 0 and the “Morningglory plant response rating (0 to 10 scale)” value (morningglory; Preemergence, Rate 125 g/ha) was 0. For the same compound, the “Morningglory plant response rating” value (morningglory; Preemergence, Rate 250 g/ha) was 0, the “Morningglory plant response rating” value (morningglory; Preemergence, Rate 500 g/ha) was 0 and the “Morningglory plant response rating” value (morningglory; Rate 62 g/ha, Postemergence) was 1. The “Plant response rating, Morningglory” value (morningglory; [4]) was 6, the “Plant response rating, Wheat” value (wheat; [1]) was 0 and the “Plant response rating, Wheat” value (wheat; [2]) was 2. For the same compound, the “Plant response rating, Wheat” value (wheat; [3]) was 0, the “Wheat plant response rating (0 to 10 scale)” value (wheat; Preemergence, Rate 125 g/ha) was 0 and the “Wheat plant response rating” value (wheat; Preemergence, Rate 250 g/ha) was 2. The “Wheat plant response rating” value (wheat; Preemergence, Rate 500 g/ha) was 3, the “Wheat plant response rating” value (wheat; Rate 62 g/ha, Postemergence) was 0 and the “Plant response rating, Wheat” value (wheat; [4]) was 6. For the same compound, the “Plant response rating, Crabgrass” value (crabgrass; [1]) was 4, the “Plant response rating, Crabgrass” value (crabgrass; [2]) was 7 and the “Plant response rating, Crabgrass” value (crabgrass; [3]) was 7. The “Crabgrass plant response rating (0 to 10 scale)” value (crabgrass; Preemergence, Rate 125 g/ha) was 8, the “Crabgrass plant response rating” value (crabgrass; Preemergence, Rate 250 g/ha) was 10 and the “Crabgrass plant response rating” value (crabgrass; Preemergence, Rate 500 g/ha) was 10. For the same compound, the “Crabgrass plant response rating” value (crabgrass; Rate 62 g/ha, Postemergence) was 0 and the “Plant response rating, Crabgrass” value (crabgrass; [4]) was 9.
